According to patent publication US12692238B2, “Substituted pyridazinone herbicides” (FMC CORPORATION, priority 2020, dated 2026):
Where two headings read alike, the source gives them in different places.

Experiments:
Format in all cases: in vivo
rice (Oryza sativa) = experiment: Test B flooded paddy test, rice; conditions: Oryza sativa; 250 g ai/ha, Flood; visually evaluated after 10 to 14 days; read-out: Plant response rating, Rice (0 to 100 scale where 0 is no effect and 100 is complete control)
How it was run: (§1)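 Compound added straight to paddy water of pots flooded to 3 cm, with 2-leaf-stage plants; water level held for the test. Injury scored visually against untreated controls after 10 to 14 greenhouse days, 0 (none) to 100 (complete control).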

kochia (Bassia scoparia) = experiment: Test A postemergence, kochia; conditions: Bassia scoparia, post-emergence, 240 h, 10 days, read-out: Plant response rating, Kochia; for pest or weed control at 31 g/ha: 31 g ai/ha, postemergence, 0 to 100 scale (0 no effect, 100 complete control); for pest or weed control at 125 g/ha: Postemergence, 125 g ai/ha, 0 to 100 scale
How it was run: (§2)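 Visual injury rating on a 0–100 scale (100 = complete control) versus untreated plants after 10 days in greenhouse. Treatments: directed soil spray preemergence after sowing in loam/sand, or postemergence on one- to two-leaf plants 2–10 cm high; surfactant-containing non-phytotoxic solvent formulation.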

[1] = tested on: sedge, umbrella (small-flower umbrella sedge, Cyperus difformis); experiment: Test B flooded paddy test, sedge, umbrella; conditions: Cyperus difformis; 250 g ai/ha, Flood; visually evaluated after 10 to 14 days; read-out: Plant response rating, Sedge, Umbrella (0 to 100 scale where 0 is no effect and 100 is complete control)
How it was run: as §1

[2] = tested on: ragweed (common ragweed, Ambrosia artemisiifolia); experiment: Test A postemergence, ragweed; conditions: Ambrosia artemisiifolia, post-emergence, 240 h, 10 days, read-out: Plant response rating, Ragweed; for pest or weed control at 31 g/ha: 31 g ai/ha, postemergence, 0 to 100 scale (0 no effect, 100 complete control); for pest or weed control at 125 g/ha: Postemergence, 125 g ai/ha, 0 to 100 scale
How it was run: as §2

[3] = tested on: ragweed (common ragweed, Ambrosia artemisiifolia); experiment: Test A preemergence, ragweed; conditions: Ambrosia artemisiifolia, pre-emergence, 240 h, 0 to 100 scale, 10 days, read-out: Plant response rating, Ragweed; for pest or weed control at 31 g/ha: 31 g ai/ha; for pest or weed control at 125 g/ha: 125 g ai/ha
How it was run: as §2

[4] = tested on: ryegrass, Italian (Italian ryegrass, Lolium multiflorum); experiment: Test A postemergence, ryegrass, Italian; conditions: Lolium multiflorum, post-emergence, 240 h, 10 days, read-out: Plant response rating, Ryegrass, Italian; for pest or weed control at 31 g/ha: 31 g ai/ha, postemergence, 0 to 100 scale (0 no effect, 100 complete control); for pest or weed control at 125 g/ha: Postemergence, 125 g ai/ha, 0 to 100 scale
How it was run: as §2

[5] = tested on: barnyardgrass (Echinochloa crus-galli); experiment: Test B flooded paddy test, barnyardgrass; conditions: Echinochloa crus-galli; 250 g ai/ha, Flood; visually evaluated after 10 to 14 days; read-out: Plant response rating, Barnyardgrass (0 to 100 scale where 0 is no effect and 100 is complete control)
How it was run: as §1

[6] = tested on: barnyardgrass (Echinochloa crus-galli); experiment: Test A preemergence, barnyardgrass; conditions: 10 days
How it was run: as §2

[7] = tested on: barnyardgrass (Echinochloa crus-galli); experiment: Test A postemergence, barnyardgrass; conditions: Postemergence, 0 to 100 scale, 10 days
How it was run: as §2

corn (Zea mays) = experiment: Test A postemergence, corn; conditions: Zea mays, post-emergence, 240 h, 10 days; for Corn plant response rating (crop injury, 0 = no effect, 100 = complete kill) at 31 g/ha: 31 g ai/ha; for Corn plant response rating (crop injury, 0 = no effect, 100 = complete kill) at 125 g/ha: 125 g ai/ha
How it was run: as §2

[8] = tested on: wheat (Triticum aestivum); experiment: Test A postemergence, wheat; conditions: Triticum aestivum, post-emergence, 240 h, 10 days, read-out: Plant response rating, Wheat; for plant injury at 31 g/ha: 31 g ai/ha, postemergence, 0 to 100 scale (0 no effect, 100 complete control); for plant injury at 125 g/ha: Postemergence, 125 g ai/ha, 0 to 100 scale
How it was run: as §2

[9] = tested on: galium (catchweed bedstraw, Galium aparine); experiment: Test A postemergence, galium; conditions: Galium, post-emergence, 240 h, 10 days, read-out: Plant response rating, Galium; for pest or weed control at 31 g/ha: 31 g ai/ha, postemergence, 0 to 100 scale (0 no effect, 100 complete control); for pest or weed control at 125 g/ha: Postemergence, 125 g ai/ha, 0 to 100 scale
How it was run: as §2

[10] = tested on: blackgrass (Alopecurus myosuroides); experiment: Test A postemergence, blackgrass; conditions: Alopecurus myosuroides, post-emergence, 240 h, 10 days, read-out: Plant response rating, Blackgrass; for pest or weed control at 31 g/ha: 31 g ai/ha; for pest or weed control at 125 g/ha: 125 g ai/ha
How it was run: as §2

[11] = tested on: ryegrass, Italian (Italian ryegrass, Lolium multiflorum); experiment: Test A preemergence, ryegrass, Italian; conditions: Lolium multiflorum, pre-emergence, 240 h, 0 to 100 scale, 10 days, read-out: Plant response rating, Ryegrass, Italian; for pest or weed control at 31 g/ha: 31 g ai/ha; for pest or weed control at 125 g/ha: 125 g ai/ha
How it was run: as §2

[12] = tested on: foxtail, giant (giant foxtail, Setaria faberi); experiment: Test A preemergence, foxtail, giant; conditions: Setaria faberi, pre-emergence, 240 h, 0 to 100 scale, 10 days, read-out: Plant response rating, Foxtail, Giant; for pest or weed control at 31 g/ha: 31 g ai/ha; for pest or weed control at 125 g/ha: 125 g ai/ha
How it was run: as §2

[13] = tested on: foxtail, giant (giant foxtail, Setaria faberi); experiment: Test A postemergence, foxtail, giant; conditions: Setaria faberi, post-emergence, 240 h, 10 days, read-out: Plant response rating, Foxtail, Giant; for pest or weed control at 31 g/ha: 31 g ai/ha; for pest or weed control at 125 g/ha: 125 g ai/ha
How it was run: as §2

[14] = postemergence, 0 to 100 scale (0 no effect, 100 complete control)

| SMILES | plant injury at 250 g/ha (rice (Oryza sativa)) | pest or weed control at 31 g/ha (kochia (Bassia scoparia)) | pest or weed control at 125 g/ha (kochia (Bassia scoparia)) | pest or weed control at 250 g/ha [1] | pest or weed control at 31 g/ha [2] | pest or weed control at 125 g/ha [2] | pest or weed control at 31 g/ha [3] | pest or weed control at 125 g/ha [3] | pest or weed control at 31 g/ha [4] | pest or weed control at 125 g/ha [4] | pest or weed control at 250 g/ha [5] | Corn plant response rating (crop injury, 0 = no effect, 100 = complete kill) at 31 g/ha (corn (Zea mays); Postemergence, 0 to 100 scale) | Corn plant response rating (crop injury, 0 = no effect, 100 = complete kill) at 125 g/ha (corn (Zea mays); Postemergence, 0 to 100 scale) | plant injury at 31 g/ha [8] | plant injury at 125 g/ha [8] | pest or weed control at 31 g/ha [9] | pest or weed control at 125 g/ha [9] | pest or weed control at 125 g/ha ([10]; Postemergence, 0 to 100 scale) | pest or weed control at 31 g/ha [11] | pest or weed control at 125 g/ha [11] | further results |
| --- | --- | --- | --- | --- | --- | --- | --- | --- | --- | --- | --- | --- | --- | --- | --- | --- | --- | --- | --- | --- | --- |
| CC(=O)OCOc1c(Cl)nn(C)c(=O)c1-c1c(C)ccc2ccccc12 [Compound 5, 5-[(acetyloxy)methoxy]-6-chloro-2-methyl-4-(2-methyl-1-naphthalenyl)-3(2H)-pyridazinone] | 35% | 30% | 60% | 85% | 80% | 90% | 100% | 100% | 30% | 80% | 40% | 0% | 10% | 10% | 30% | 100% | 100% | 50% | 70% | 100% | Plant response rating, Barnyardgrass ([6]; 31 g ai/ha, 0 to 100 scale): 80; Plant response rating, Barnyardgrass ([6]; 125 g ai/ha, 0 to 100 scale (0 no effect, 100 complete control)): 100; Plant response rating, Barnyardgrass ([7]; 31 g ai/ha): 40; Plant response rating, Barnyardgrass ([7]; 125 g ai/ha): 80; pest or weed control at 31 g/ha ([10]; Postemergence, 0 to 100 scale): 20% |
| COC(=O)OCOc1c(C)nn(C)c(=O)c1-c1c2cc(C)ccc2cc2ccc(F)cc12 [Compound 15, [[5-(2-fluoro-7-methyl-9-anthracenyl)-1,6-dihydro-1,3-dimethyl-6-oxo-4-pyridazinyl]oxy]methyl methyl carbonate] | 65% | 100% | 100% | 90% | 100% | 100% | 100% | 100% | 100% | 100% | 50% | – | 50% | 0% | 0% | 100% | 100% | 10% | 50% | 100% | pest or weed control at 31 g/ha [12]: 100%; pest or weed control at 125 g/ha [12]: 100%; Corn plant response rating (crop injury, 0 = no effect, 100 = complete kill) at 31 g/ha (corn (Zea mays); [14]): 0%; pest or weed control at 31 g/ha [13, 14]: 100%; pest or weed control at 125 g/ha ([13]; Postemergence, 0 to 100 scale): 100%; pest or weed control at 31 g/ha [10, 14]: 0% |
| COC(=O)OCOc1c(Cl)nn(C)c(=O)c1-c1c2cc(C)ccc2cc2ccc(C)cc12 [Compound 8, [[3-chloro-5-(2,7-dimethyl-9-anthracenyl)-1,6-dihydro-1-methyl-6-oxo-4-pyridazinyl]oxy]methyl methyl carbonate] | 0% | 90% | 100% | 95% | 100% | 100% | 40% | 100% | 10% | 10% | 90% | 0% | 20% | 0% | 0% | 100% | 100% | 0% | 0% | 10% | pest or weed control at 31 g/ha [12]: 30%; pest or weed control at 125 g/ha [12]: 70%; pest or weed control at 31 g/ha ([13]; Postemergence, 0 to 100 scale): 10%; pest or weed control at 125 g/ha ([13]; Postemergence, 0 to 100 scale): 70%; pest or weed control at 31 g/ha ([10]; Postemergence, 0 to 100 scale): 0% |
| Cc1ccc2cc3ccc(C)cc3c(-c3c(OCOC(=O)C(C)(C)C)c(Cl)nn(C)c3=O)c2c1 [Compound 9, [[3-chloro-5-(2,7-dimethyl-9-anthracenyl)-1,6-dihydro-1-methyl-6-oxo-4-pyridazinyl]oxy]methyl 2,2-dimethylpropanoate] | 0% | 70% | 90% | 100% | 80% | 100% | 0% | 60% | 0% | 10% | 98% | 0% | 20% | 0% | 0% | 70% | 100% | 0% | 0% | 0% | pest or weed control at 31 g/ha [12]: 0%; pest or weed control at 125 g/ha [12]: 50%; pest or weed control at 31 g/ha ([13]; Postemergence, 0 to 100 scale): 20%; pest or weed control at 125 g/ha ([13]; Postemergence, 0 to 100 scale): 40%; pest or weed control at 31 g/ha ([10]; Postemergence, 0 to 100 scale): 0% |
